In patent US10239873B2, “7-azaindole or 4,7-diazaindole derivatives as IKKϵ epsilon and TBK1 inhibitor and pharmaceutical composition comprising same” (GREEN CROSS CORPORATION, priority 2015, dated 2019):

Biological target: T1, TBK1 (Homo sapiens, UniProt Q9UHD2)
T1 construct: purchased Promega (Invitrogen is also named in the same bracket) V4158; PR8031B; V3991 (not assigned to the two kinases)
T1 sequence (Q9UHD2 1-729): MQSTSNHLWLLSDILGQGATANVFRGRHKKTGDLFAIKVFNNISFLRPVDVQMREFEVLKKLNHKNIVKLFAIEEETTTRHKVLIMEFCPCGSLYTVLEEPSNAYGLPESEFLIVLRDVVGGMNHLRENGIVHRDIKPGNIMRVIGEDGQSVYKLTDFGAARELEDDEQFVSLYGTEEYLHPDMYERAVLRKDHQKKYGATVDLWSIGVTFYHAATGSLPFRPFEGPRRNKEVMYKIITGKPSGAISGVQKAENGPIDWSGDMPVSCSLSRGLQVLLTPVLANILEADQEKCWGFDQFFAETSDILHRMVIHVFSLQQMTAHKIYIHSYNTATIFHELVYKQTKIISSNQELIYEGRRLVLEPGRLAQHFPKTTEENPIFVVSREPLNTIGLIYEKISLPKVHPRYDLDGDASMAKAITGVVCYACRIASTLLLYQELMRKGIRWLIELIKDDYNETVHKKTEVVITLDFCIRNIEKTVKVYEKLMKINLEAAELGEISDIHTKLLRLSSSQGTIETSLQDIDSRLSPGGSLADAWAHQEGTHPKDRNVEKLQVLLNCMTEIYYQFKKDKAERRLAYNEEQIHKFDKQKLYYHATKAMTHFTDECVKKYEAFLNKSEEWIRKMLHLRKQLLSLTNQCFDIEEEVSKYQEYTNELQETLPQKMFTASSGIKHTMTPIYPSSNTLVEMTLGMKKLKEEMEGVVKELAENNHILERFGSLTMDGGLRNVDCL
Experiment: ADP-Glo Kinase Assay, inhibition activity on TBK1
Type: biochemical
Procedure: Inhibition activities on IKKϵ and TBK1 were evaluated using the compounds of Examples 1 to 250.
The inhibition activities on IKKϵ and TBK1 were measured by a luminometer, IKKϵ/TBK1 Kinase Enzyme System (Promega, Ca# V4158; Invitrogen, PR8031B, Promega, Ca# V3991) and ADP-Glo Kinase Assay using ADP-Glo™ Kinase Analysis Kit (Promega, Ca# V9101) and a kinase reaction buffer [40 mM Tris(pH 7.5), 20 mM MgCl2, 0.1 mg/mL BSA] in accordance with the manufacturer's protocol.

| IC50 | SMILES |
| --- | --- |
| 28 nM | NS(=O)(=O)c1ccc(-c2cnc3[nH]cc(C4=CCN(C(=O)c5cccs5)CC4)c3c2)cc1 [Example 197, 4-(3-(1-(thiophene-2-carbonyl)-1,2,3,6-tetrahydropyridin-4-yl)-1H-pyrrolo[2,3-b]pyridin-5-yl)benzensulfonamide] |
| 16 nM | O=C(NC1CCOC1)N1CC=C(c2c[nH]c3ncc(-c4ccc(CN5CCOCC5)s4)cc23)CC1 (stereo not drawn) [Example 84, 4-(5-(5-(Morpholinomethyl)thiophen-2-yl)-1H-pyrrolo[2,3-b]pyridin-3-yl)-N-(tetrahydrofuran-3-yl)-5,6-dihydropyridine-1(2H)-carboxamide] |
| 950 nM | CC(=O)c1ccc(-c2cnc3[nH]cc(C4=CCN(C(=O)OC(C)(C)C)CC4)c3c2)cc1 [Example 166, tert-Butyl 4-(5-(4-acetylphenyl)-1H-pyrrolo[2,3-b]pyridin-3-yl)-5,6-dihydropyridine-1(2H)-carboxylate] |
| 620 nM | O=C(NC1CCCC1)N1CC=C(c2c[nH]c3ncc(-c4csc(CN5CCOCC5)c4)cc23)CC1 [Example 73, N-cyclopentyl-4-(5-(5-(morpholinomethyl)thiophen-3-yl)-1H-pyrrolo[2,3-b]pyridin-3-yl)-5,6-dihydropyridine-1(2H)-carboxamide] |
| 32 nM | COc1ccc(-c2cnc3[nH]cc(C4=CCN(C(=O)NC5CCCC5)CC4)c3c2)cc1OC [Example 49, N-cyclopentyl-4-(5-(3,4-dimethoxyphenyl)-1H-pyrrolo[2,3-b]pyridin-3-yl)-5,6-dihydropyridine-1(2H)-carboxamide] |
| 880 nM | COc1ccc(-c2cnc3[nH]cc(C4=CCN(C(=O)OC5CCCC5)CC4)c3c2)cc1F [Example 171, Cyclopentyl 4-(5-(3-fluoro-4-methoxyphenyl)-1H-pyrrolo[2,3-b]pyridin-3-yl)-5,6-dihydropyridine-1(2H)-carboxylate] |
| 550 nM | CC1=C(c2c[nH]c3ncc(-c4ccc(S(C)(=O)=O)cc4)cc23)CCN(C(=O)NC2CCCC2)C1 [Example 130, N-cyclopentyl-3-methyl-4-(5-(4-(methylsulfonyl)phenyl)-1H-pyrrolo[2,3-b]pyridin-3-yl)-5,6-dihydropyridine-1(2H)-carboxamide] |
| 81 nM | CC(C)(C)OC(=O)N1CC=C(c2c[nH]c3ncc(-c4ccc(S(N)(=O)=O)cc4)cc23)CC1 [Example 152, tert-Butyl 4-(5-(4-sulfamoylphenyl)-1H-pyrrolo[2,3-b]pyridin-3-yl)-5,6-dihydropyridine-1(2H)-carboxylate] |
| > 10000 nM | CC(C)OC(=O)N1CC=C(c2c[nH]c3ncc(-c4cccc(S(N)(=O)=O)c4)cc23)CC1 [Example 146, Isopropyl 4-(5-(3-sulfamoylphenyl)-1H-pyrrolo[2,3-b]pyridin-3-yl)-5,6-dihydropyridine-1(2H)-carboxylate] |
| 460 nM | COc1ccc(-c2cnc3[nH]cc(C4=CCN(C(=O)OC5CCCC5)CC4)c3c2)cc1OC [Example 144, Cyclopentyl 4-(5-(3,4-dimethoxyphenyl)-1H-pyrrolo[2,3-b]pyridin-3-yl)-5,6-dihydropyridine-1(2H)-carboxylate] |
| > 10000 nM | CN(C(=O)N1CC=C(c2c[nH]c3ncc(-c4cccc(S(N)(=O)=O)c4)cc23)CC1)C1CCCC1 [Example 218, N-cyclopentyl-N-methyl-4-(5-(3-sulfamoylphenyl)-1H-pyrrolo[2,3-b]pyridin-3-yl)-5,6-dihydropyridine-1(2H)-carboxamide] |
| 3000 nM | COc1ccc(-c2cnc3[nH]cc(C4=CCN(C(=O)c5ccc(C)s5)CC4)c3c2)cc1OC [Example 210, (4-(5-(3,4-dimethoxyphenyl)-1H-pyrrolo[2,3-b]pyridin-3-yl)-5,6-dihydropyridin-1(2H)-yl)(5-methylthiophen-2-yl)methanone] |
| 300 nM | COc1ccc(-c2cnc3[nH]cc(C4=CCN(C(=O)OC(C)(C)C)CC4)c3c2)cc1OC [Example 239, tert-butyl 4-(5-(3,4-dimethoxyphenyl)-1H-pyrrolo[2,3-b]pyridin-3-yl)-5,6-dihydropyridine-1(2H)-carboxylate] |
| 48 nM | O=C(c1cccs1)N1CC=C(c2c[nH]c3ncc(-c4csc(CN5CCOCC5)c4)cc23)CC1 [Example 207, (4-(5-(5-(morpholinomethyl)thiophen-3-yl)-1H-pyrrolo[2,3-b]pyridin-3-yl)-5,6-dihydropyridin-1(2H)-yl)(thiophen-2-yl)methanone] |
| 240 nM | COc1ccc(-c2cnc3[nH]cc(C4=C(C)CN(C(=O)NC5CCCC5)CC4)c3c2)cc1OC [Example 129, N-cyclopentyl-4-(5-(3,4-dimethoxyphenyl)-1H-pyrrolo[2,3-b]pyridin-3-yl)-3-methyl-5,6-dihydropyridine-1(2H)-carboxamide] |
| 1600 nM | Cc1[nH]c2ncc(-c3ccc(C(=O)N4CCOCC4)cc3)cc2c1C1=CCN(C(=O)NC2CCCC2)CC1 [Example 223, N-cyclopentyl-4-(2-methyl-5-(4-(morpholine-4-carbonyl)phenyl)-1H-pyrrolo[2,3-b]pyridin-3-yl)-5,6-dihydropyridine-1(2H)-carboxamide] |
| 2600 nM | Cc1ccc(C(=O)N2CC=C(c3c[nH]c4ncc(-c5ccc(S(N)(=O)=O)cc5)cc34)CC2)s1 [Example 212, 4-(3-(1-(5-methylthiophene-2-carbonyl)-1,2,3,6-tetrahydropyridin-4-yl)-1H-pyrrolo[2,3-b]pyridin-5-yl)benzensulfonamide] |
| 36 nM | CS(=O)(=O)c1cccc(-c2cnc3[nH]cc(C4=CCN(C(=O)c5cccs5)CC4)c3c2)c1 [Example 193, (4-(5-(3-(Methylsulfonyl)phenyl)-1H-pyrrolo[2,3-b]pyridin-3-yl)-5,6-dihydropyridin-1(2H)-yl)(thiophen-2-yl)methanone] |
| 5.5 nM | CCC(C)NC(=O)N1CC=C(c2c[nH]c3ncc(-c4ccc(CN5CCOCC5)s4)cc23)CC1 (stereo not drawn) [Example 43, N-(sec-butyl)-4-(5-(5-(morpholinomethyl)thiophen-2-yl)-1H-pyrrolo[2,3-b]pyridin-3-yl)-5,6-dihydropyridine-1(2H)-carboxamide] |
| 360 nM | CN(C(=O)N1CC=C(c2c[nH]c3ncc(-c4cccc(S(C)(=O)=O)c4)cc23)CC1)C1CCCC1 [Example 217, N-cyclopentyl-N-methyl-4-(5-(3-(methylsulfonyl)phenyl)-1H-pyrrolo[2,3-b]pyridin-3-yl)-5,6-dihydropyridine-1(2H)-carboxamide] |
| 12 nM | CC1CN(C(=O)c2cccs2)CC=C1c1c[nH]c2ncc(-c3ccc(C(=O)N4CCOCC4)cc3)cc12 (stereo not drawn) [Example 215, (4-(3-(3-methyl-1-(thiophene-2-carbonyl)-1,2,3,6-tetrahydropyridin-4-yl)-1H-pyrrolo[2,3-b]pyridin-5-yl)phenyl)(morpholino)methanone] |
| 1300 nM | CCCOc1cccc(-c2cnc3[nH]cc(C4=CCN(C(=O)OC(C)(C)C)CC4)c3c2)c1 [Example 242, tert-butyl 4-(5-(3-propoxyphenyl)-1H-pyrrolo[2,3-b]pyridin-3-yl)-5,6-dihydropyridine-1(2H)-carboxylate] |
| 320 nM | CC(C)(C)OC(=O)N1CC=C(c2c[nH]c3ncc(-c4ccc(CN5CCOCC5)cc4)cc23)CC1 [Example 154, tert-Butyl 4-(5-(4-(morpholinomethyl)phenyl)-1H-pyrrolo[2,3-b]pyridin-3-yl)-5,6-dihydropyridine-1(2H)-carboxylate] |
| 410 nM | O=C(NCc1ccco1)c1cccc(-c2cnc3[nH]cc(C4=CCN(C(=O)NC5CCCC5)CC4)c3c2)c1 [Example 67, N-cyclopentyl-4-(5-(3-((furan-2-ylmethyl)carbamoyl)phenyl)-1H-pyrrolo[2,3-b]pyridin-3-yl)-5,6-dihydropyridine-1(2H)-carboxamide] |
| 350 nM | O=C(OC1CCCC1)N1CC=C(c2c[nH]c3ncc(-c4ccc(S(=O)(=O)C5CC5)cc4)cc23)CC1 [Example 175, Cyclopentyl 4-(5-(4-(cyclopropylsulfonyl)phenyl)-1H-pyrrolo[2,3-b]pyridin-3-yl)-5,6-dihydropyridine-1(2H)-carboxylate] |
| 81 nM | O=C(OC1CCCC1)N1CC=C(c2c[nH]c3ncc(-c4csc(CN5CCOCC5)c4)cc23)CC1 [Example 185, Cyclopentyl 4-(5-(5-(morpholinomethyl)thiophen-3-yl)-1H-pyrrolo[2,3-b]pyridin-3-yl)-5,6-dihydropyridine-1(2H)-carboxylate] |
| 1800 nM | COc1ccccc1-c1cnc2[nH]cc(C3=CCN(C(=O)OC(C)(C)C)CC3)c2c1 [Example 244, tert-butyl 4-(5-(2-methoxyphenyl)-1H-pyrrolo[2,3-b]pyridin-3-yl)-5,6-dihydropyridine-1(2H)-carboxylate] |
